Laboratory results: patent US10800752B2, “Substituted naphtho[2,3-b]furans as water-soluble prodrugs for preventing and/or treating cancer” (BOSTON BIOMEDICAL, INC., priority 2015, dated 2020)

Legend:
[1] = Evaluation of a conversion rate to 2-acetylnaphtho[2,3-b]furan-4,9-dione in human plasma; assay type: in vitro ADME; settings: 1 umol/L; for % Measurement value of Activated form (conversion rate to 2-acetylnaphtho[2,3-b]furan-4,9-dione): human; for % Measurement value (conversion rate to 2-acetylnaphtho[2,3-b]furan-4,9-dione): Human plasma, 37° C., incubation time 120 min
Protocol: (§1) For test compounds, the decrease rate of the test compounds and the conversion rate thereof to 2-acetylnaphtho[2,3-b]furan-4,9-dione in human plasma, CD1 mouse plasma, and pH 7.4 phosphate buffer solution were measured.
(§2) Test compounds were incubated at the concentration of 1 umol/L in human plasma (cat. no. 12250210, COSMO BIO), CD1 mouse plasma (cat. no. AP3054, KAC), and phosphate buffer solution at 37° C., and removed at predetermined times (0, 5, 10, 30, 60, and 120 minutes). After protein-removing treatment was performed, they are analyzed with LC-MS. It should be noted that the protein-removing treatment used acetonitrile containing: 10% volume of 1 mol/L hydrochloric acid; 1% volume of 46% citric acid; and phenytoin as an internal standard.
(§3) The measurement condition of LC-MS is as described below. LC-MS condition column: Kinetex 2.6 u PFP 100 A 50×2.1 mm Column temperature: 40° C.
(§4) Mobile phase: A: 0.1% formic acid-containing water
(§5) • B: 0.1% formic acid-containing acetonitrile A/B(min): 95/5(0)→5/95(3)→5/95(4)→95/5(4.1)→95/5(6) Flow rate: 0.4 mL/min Detection: ESI (positive mode) Injection volume: 10 uL
In the same way as Example 6, the incubation time was set as 120 minutes later, and the conversion rate of each of various test compounds to 2-acetylnaphtho[2,3-b]furan-4,9-dione in human plasma, CD1 mouse plasma, and pH 7.4 phosphate buffer solution was measured.

[2] = Evaluation of a conversion rate to 2-acetylnaphtho[2,3-b]furan-4,9-dione in CD1 mouse plasma; assay type: in vitro ADME; settings: 1 umol/L; for % Measurement value of Activated form (conversion rate to 2-acetylnaphtho[2,3-b]furan-4,9-dione): CD1, mouse; for % Measurement value (conversion rate to 2-acetylnaphtho[2,3-b]furan-4,9-dione): CD1 mouse plasma, 37° C., incubation time 120 min
Protocol: as §1, §2, §3, §4, §5
(§6) Measurement values are calculated from the peak area ratio in LC-MS between an internal standard material, phenytoin and an active form, 2-acetylnaphtho[2,3-b]furan-4,9-dione, and are expressed in %.
(§7) In the same way as Example 6, the incubation time was set as 120 minutes later, and the conversion rate of each of various test compounds to 2-acetylnaphtho[2,3-b]furan-4,9-dione in human plasma, CD1 mouse plasma, and pH 7.4 phosphate buffer solution was measured. A series of the present compounds were confirmed to be converted to 2-acetylnaphtho[2,3-b]furan-4,9-dione in pH 7.4 phosphate buffer solution in addition to human plasma and CD1 mouse plasma. Therefore, a series of the test compounds of the present invention were confirmed to be converted to the activated form via a route other than an enzymatic conversion.

[3] = Evaluation of a conversion rate to 2-acetylnaphtho[2,3-b]furan-4,9-dione in pH 7.4 phosphate buffer solution; assay type: physicochemical; settings: 1 umol/L, 37° C.; for % Measurement value of Activated form (conversion rate to 2-acetylnaphtho[2,3-b]furan-4,9-dione): formed from Example 6, phosphate buffer solution (pH 7.4); for % Measurement value (conversion rate to 2-acetylnaphtho[2,3-b]furan-4,9-dione): Phosphate buffer solution (pH 7.4)
Protocol: as §1, §2, §3, §4, §5, §6, §7

Solubility test = settings: 50 mmol/L glycine buffer solution (pH 2.0), room temperature, 24 hours shaking
Protocol: A water-soluble prodrug was added into 50 mmol/L glycine buffer solution (pH 2.0). After shaking at room temperature for 24 hours, the mixture was filtered through a membrane filter, and then the filtrate was measured with HPLC.
The measurement condition of HPLC is as described below. HPLC condition column: Acquity UPLC BEH C18, 1.7 um, 50×2.1 mm
Mobile phase: A: 0.1% trifluoroacetic acid-containing water

| Compound | % Measurement value (conversion rate to 2-acetylnaphtho[2,3-b]furan-4,9-dione) [1] | % Measurement value (conversion rate to 2-acetylnaphtho[2,3-b]furan-4,9-dione) ([3]; incubation time 120 min) | Solubility in pH 2.0 buffer solution (Solubility test) | also measured |
| --- | --- | --- | --- | --- |
| CC(=O)c1cc2c(o1)C(=O)c1ccccc1C2=O [Activated form, 2-acetylnaphtho[2,3-b]furan-4,9-dione, reference compound] | – | – | – | % Measurement value of Activated form (conversion rate to 2-acetylnaphtho[2,3-b]furan-4,9-dione) ([1]; 0 min): 0%; % Measurement value of Activated form (conversion rate to 2-acetylnaphtho[2,3-b]furan-4,9-dione) ([1]; 5 min): 24%; % Measurement value of Activated form (conversion rate to 2-acetylnaphtho[2,3-b]furan-4,9-dione) ([1]; 10 min): 31%; % Measurement value of Activated form (conversion rate to 2-acetylnaphtho[2,3-b]furan-4,9-dione) ([1]; 30 min): 48%; % Measurement value of Activated form (conversion rate to 2-acetylnaphtho[2,3-b]furan-4,9-dione) ([1]; 60 min): 64%; % Measurement value of Activated form (conversion rate to 2-acetylnaphtho[2,3-b]furan-4,9-dione) ([1]; 120 min): 71%; % Measurement value of Activated form (conversion rate to 2-acetylnaphtho[2,3-b]furan-4,9-dione) ([2]; 0 min): 0%; % Measurement value of Activated form (conversion rate to 2-acetylnaphtho[2,3-b]furan-4,9-dione) ([2]; 5 min): 23%; % Measurement value of Activated form (conversion rate to 2-acetylnaphtho[2,3-b]furan-4,9-dione) ([2]; 10 min): 31%; % Measurement value of Activated form (conversion rate to 2-acetylnaphtho[2,3-b]furan-4,9-dione) ([2]; 30 min): 63%; % Measurement value of Activated form (conversion rate to 2-acetylnaphtho[2,3-b]furan-4,9-dione) ([2]; 60 min): 67%; % Measurement value of Activated form (conversion rate to 2-acetylnaphtho[2,3-b]furan-4,9-dione) ([2]; 120 min): 76%; % Measurement value of Activated form (conversion rate to 2-acetylnaphtho[2,3-b]furan-4,9-dione) ([3]; incubation time 0 min): 0%; % Measurement value of Activated form (conversion rate to 2-acetylnaphtho[2,3-b]furan-4,9-dione) ([3]; incubation time 5 min): 20%; % Measurement value of Activated form (conversion rate to 2-acetylnaphtho[2,3-b]furan-4,9-dione) ([3]; incubation time 10 min): 29%; % Measurement value of Activated form (conversion rate to 2-acetylnaphtho[2,3-b]furan-4,9-dione) ([3]; incubation time 30 min): 55%; % Measurement value of Activated form (conversion rate to 2-acetylnaphtho[2,3-b]furan-4,9-dione) ([3]; incubation time 60 min): 61%; % Measurement value of Activated form (conversion rate to 2-acetylnaphtho[2,3-b]furan-4,9-dione) ([3]; incubation time 120 min): 78% |
| CC(=O)c1cc2c(OC(=O)NC3CCC(N)CC3)c3ccccc3c(OC(=O)NC3CCC(N)CC3)c2o1.Cl.Cl (stereo not drawn) [Example 7] | 69% | 41% | – | % Measurement value (conversion rate to 2-acetylnaphtho[2,3-b]furan-4,9-dione) [2]: 51% |
| CC(=O)c1cc2c(OC(=O)NC3CCNCC3)c3ccccc3c(OC(=O)NC3CCNCC3)c2o1.Cl.Cl [Example 8] | 79% | 49% | – | % Measurement value (conversion rate to 2-acetylnaphtho[2,3-b]furan-4,9-dione) [2]: 79% |
| CC(=O)c1cc2c(OC(=O)NCCOCCN)c3ccccc3c(OC(=O)NCCOCCN)c2o1.Cl.Cl [Example 9] | 65% | 50% | – | % Measurement value (conversion rate to 2-acetylnaphtho[2,3-b]furan-4,9-dione) [2]: 81% |
| CC(=O)c1cc2c(OC(=O)NCC[C@H](N)C(=O)O)c3ccccc3c(OC(=O)NCC[C@H](N)C(=O)O)c2o1.Cl.Cl [Example 12] | 63% | 63% | – | % Measurement value (conversion rate to 2-acetylnaphtho[2,3-b]furan-4,9-dione) [2]: 78% |
| CC(=O)c1cc2c(OC(=O)NCCCCN)c3ccccc3c(OC(=O)NCCCCN)c2o1.Cl.Cl [Example 13] | 95% | 13% | – | % Measurement value (conversion rate to 2-acetylnaphtho[2,3-b]furan-4,9-dione) [2]: 50% |
| COC(=O)NCCNCCCNC(=O)Oc1c2ccccc2c(OC(=O)NCCCNCCNC(=O)OC)c2oc(C(C)=O)cc12.Cl.Cl [Example 68] | 73% | 59% | >5.0 mg/mL | – |
| COC(=O)OCCNCCNC(=O)Oc1c2ccccc2c(OC(=O)NCCNCCOC(=O)OC)c2oc(C(C)=O)cc12.Cl.Cl [Example 69] | 90% | 71% | >5.0 mg/mL | – |
| COC(=O)OCCNCCCNC(=O)Oc1c2ccccc2c(OC(=O)NCCCNCCOC(=O)OC)c2oc(C(C)=O)cc12.Cl.Cl [Example 70] | 66% | 48% | >5.0 mg/mL | – |
| CC(=O)c1cc2c(O)c3ccccc3c(OC(=O)NCCNCCS(=O)(=O)N(C)C)c2o1.Cl [Example 79] | 71% | 39% | 0.3 mg/mL | – |
| CC(=O)c1cc2c(O)c3ccccc3c(OC(=O)NCCCNCCS(=O)(=O)N(C)C)c2o1.Cl [Example 80] | 54% | 32% | 1.0 mg/mL | – |
| CC(=O)c1cc2c(O)c3ccccc3c(OC(=O)NCCNCCS(C)(=O)=O)c2o1.Cl [Example 81] | 74% | 27% | 0.9 mg/mL | – |
| CC(=O)c1cc2c(O)c3ccccc3c(OC(=O)NCCCNCCS(C)(=O)=O)c2o1.Cl [Example 82] | 74% | 25% | 0.1 mg/mL | – |
| CC(=O)c1cc2c(O)c3ccccc3c(OC(=O)NCCCNCC(=O)NCC(=O)O)c2o1.Cl [Example 84] | 42% | 31% | >5.0 mg/mL | – |
| CC(=O)c1cc2c(O)c3ccccc3c(OC(=O)NCCNCC(=O)N3CCC3)c2o1.Cl [Example 85] | 38% | 37% | 4.1 mg/mL | – |
| CC(=O)c1cc2c(O)c3ccccc3c(OC(=O)NCCCNCC(=O)N3CCC3)c2o1.Cl [Example 86] | 55% | 38% | >5.0 mg/mL | – |
| CC(=O)c1cc2c(O)c3ccccc3c(OC(=O)NCCNCCOC(N)=O)c2o1.Cl [Example 87] | 38% | 36% | 4.0 mg/mL | – |
| CC(=O)c1cc2c(O)c3ccccc3c(OC(=O)NCCCNCCOC(N)=O)c2o1.Cl [Example 88] | 27% | 26% | 3.2 mg/mL | – |
| COC(=O)NCCNCCNC(=O)Oc1c2ccccc2c(O)c2cc(C(C)=O)oc12.Cl [Example 89] | 63% | 58% | >5.0 mg/mL | – |
| COC(=O)OCCNCCNC(=O)Oc1c2ccccc2c(O)c2cc(C(C)=O)oc12.Cl [Example 91] | 61% | 45% | 3.6 mg/mL | – |
| COC(=O)OCCNCCCNC(=O)Oc1c2ccccc2c(O)c2cc(C(C)=O)oc12.Cl [Example 92] | 34% | 26% | >5.0 mg/mL | – |
| Dimethyl 4,4′-((((2-acetylnaphtho[2,3-b]furan-4,9-diyl)bis(oxy))bis(carbonyl))bis-(azanediyl))(2S,2′S)-bis(2-aminobutanoate)dimethanesulfonate salt [Example 104] | 82% | 57% | >5.0 mg/mL | – |
